In patent publication US12458677B2, “Method for preparing Gynostemma pentaphyllum leaf extract and Gynostemma pentaphyllum leaf extract prepared thereby” (BIONIC TRADING CORPORATION, priority 2022, dated 2025):

Assays:
MuRF-1 = MuRF-1 mRNA expression (RT-PCR) in TNF-α-treated L6 myotubes; type: cell-based; details: TNF-α 50 ng/ml alone, 6 hours
Experimental: (§1) L6 myoblasts (ATCC) were seeded onto a 6-well plate at 2×10^5 cell/mL and then cultured in DMEM (Hyclone) containing 10% FBS (Hyclone). When the cell density reached about 80-85%, the L6 cells were differentiated into myotubes by removing the medium from the well and replacing with DMEM (Hyclone) containing 2% HS (Hyclone). The differentiation was conducted for a total of 6 days while replacing with a fresh medium every other day. After the differentiation, the Gynostemma pentaphyllum leaf extract of Examples or Comparative Example was dissolved in DMEM containing 50 ng/mL of TNF-α to a concentration of 40 μg/mL and treated to the cells. 6 hours later, total RNAs were isolated using a TRIzol reagent (Takara, Osaka, Japan). The isolated total RNAs were quantified using NanoDrop 1000 (Thermo Fisher Scientific Inc., Waltham, MA, USA). 16 μL of the quantified RNAs were mixed with a reverse transcriptase premix (ELPIS-Biotech) and cDNAs were synthesized under the condition of 55 minutes at 42° C. and 15 minutes at 70° C. using a PCR machine (Gene Amp PCR System 2700; Applied Biosystems, Foster City, CA, USA). […]

Atrogin-1 = Atrogin-1 mRNA expression (RT-PCR) in TNF-α-treated L6 myotubes; type: cell-based; details: TNF-α 50 ng/ml alone, 6 hours
Experimental: as §1

Substance: TNF-α
- MuRF-1 (% of control group) (MuRF-1): 411.5 ± 32.7 % of control group
- Atrogin-1 (% of control group) (Atrogin-1): 248.5 ± 26.4 % of control group
